Literature values in patent US4764376A, “Method of inhibiting aromatase” (Eli Lilly and Company, priority 1984, dated 1988).

Test system: breast cancer
Conditions: known aromatase inhibitors; result in words

Compound	beneficial effect in treatment of breast cancer
CCC1(c2ccc(N)cc2)CCC(=O)NC1=O (centres unmarked) [aminoglutethimide]	beneficial effect
C[C@]12C=CC(=O)C=C1CC[C@@H]1[C@@H]2CC[C@]2(C)OC(=O)CC[C@@H]12 [testolactone]	beneficial effect
